For one data set, the system named is Cos-7 cells. The following applies: cyclodextrin:DNA mass ratios of 10, 15 and 20, 1 μg DNA, FIG. 3.
The conditions of data set [1]: DLS, 0.1 mg/mL cyclodextrin in water. On the procedure: A 50 μL aliquot of the stock solution (0.5 mg of cyclodextrin) was transferred to a glass vial. The solvent was evaporated slowly in order to form a thin film of cyclodextrin on the surface of the glass. Millipore water (5 mL) was then used to hydrate the film giving a cyclodextrin solution with a concentration of 0.1 mg/mL. The vial was capped and placed in an oven for 90 minutes at 60° C. The cyclodextrin solutions were then filtered through a 0.45 μm Gelman Acrodisk syringe filter into a fluorimeter cuvette to remove any particles and macro aggregates. DLS investigations of these solutions were carried out using a Malvern Autosizer 4700 equipped with an Innova 70 laser (488 nm) and a photomultiplier at an angle of 90°.

This note sets out measurements from patent US8852895B2, “Macrocyclic derivative and assemblies formed therefrom” (University College Dublin, National University of Ireland, priority 2008, dated 2014).

Each structure is given as a SMILES string. Where “and” joins values, the source holds several entries; their conditions need not be identical. Identical values can stand only once. Like-named read-outs stand apart in the source and are kept apart here.

Procedure for Cos-7 cells: The plasmid DNA used for the transfection studies was the pGL3luc plasmid. This plasmid contains the gene that encodes for the firefly luciferase enzyme which allows measurement of gene expression levels in cells.
The cyclodextrin was dissolved in chloroform to a concentration of 1 mg/mL. A slow stream of nitrogen was passed over the solution to remove solvent. The cyclodextrin was then reconstituted with a plasmid DNA solution to give a final cyclodextrin concentration of 1 mg/mL. The DNA concentration used depended on the ratio of cyclodextrin:DNA being studied. This cyclodextrin:DNA solution was then sonicated for 1 hour to facilitate size reduction.
Cos-7 cells were seeded at a density of 30,000 cells per well and grown in 24 well plates in media for 20-24 hours. Prior to transfection studies, the cells were rinsed with serum-free media and then incubated in serum-free media for 1 hour. […] DNA complexes were prepared in a final volume of 100 μL so that 1 μg of DNA complexed with the vectors at the desired mass ratio. This was then added to 400 μL of serum-free media and cells which was left at 37° C. for 4 hours. […] Luciferase expression was then determined using a luciferase assay kit (Promega USA) and results were expressed as Relative Light Units (RLU) of luciferase per pg of protein (Bradford assay). […]

Consider `CCCCCCCCOC(=O)CCSCCCO[C@H]1[C@H]2O[C@H]3[C@H](O)[C@@H](OCCCSCCC(=O)OCCCCCCCC)[C@@H](O[C@H]4[C@H](O)[C@@H](OCCCSCCC(=O)OCCCCCCCC)[C@@H](O[C@H]5[C@H](O)[C@@H](OCCCSCCC(=O)OCCCCCCCC)[C@@H](O[C@H]6[C@H](O)[C@@H](OCCCSCCC(=O)OCCCCCCCC)[C@@H](O[C@H]7[C@H](O)[C@@H](OCCCSCCC(=O)OCCCCCCCC)[C@@H](O[C@H]8[C@H](O)[C@@H](OCCCSCCC(=O)OCCCCCCCC)[C@@H](O[C@@H]([C@@H]1O)[C@@H](CSCCN)O2)O[C@@H]8CSCCN)O[C@@H]7CSCCN)O[C@@H]6CSCCN)O[C@@H]5CSCCN)O[C@@H]4CSCCN)O[C@@H]3CSCCN.O=C(O)C(F)(F)F` [heptakis[6-(2′-aminoethylthio)-2-O-octyloxycarbonylethylsulfanylpropyl]-β-cyclodextrin trifluoroacetic acid salt], for which, in the data set with Cos-7 cells, the “transfection (luciferase expression) compared with naked DNA and DOTAP” value was “greater than DNA on its own and greater than DOTAP”. The “Zaverage (nm)” value in data set [1] (Day 1, filtered 0.45 μm, angle 90°, trifluoroacetic acid salt) was 76 nm and 85 nm. Further, in data set [1] (Day 7), the Polydispersity was determined as 0.251 and the “Zaverage (nm)” value amounted to 82 nm.
